From patent US12648997B2, “Treatment of infections” (priority 2018, dated 2026) come the findings set out here.

The nature of data set [1]: Stability of daptomycin in transient daptomycin-linker hydrogel conjugates versus free daptomycin. The class given is physicochemical. The conditions noted are these: pH 7.4, 37° C, at day seven; peak area ratio at 215 nm. On the procedure: The relative stability of the covalently bound daptomycin in the transient daptomycin-linker hydrogel conjugates towards hydrolytic and other degradation pathways in comparison to free daptomycin was investigated. For that purpose, free daptomycin, transient daptomycin-linker HA-conjugate 5 and transient daptomycin-linker PEG-conjugate 9b were incubated at pH 7.4 and 37° C. The supernatants of the carrier samples were exchanged five times within a week and the daptomycin purity in these samples was analyzed by UPLC. In parallel, analytical samples of the free daptomycin control solution were also analyzed by UPLC at the same incubation times. The purity of daptomycin in the samples was calculated as the ratio of the peak area of the intact daptomycin peak at 215 nm relative to the area sum of all daptomycin-related peaks identified at 215 nm.

The subject of data set [2] is Methicillin-sensitive Staphylococcus aureus (MSSA) MN8 strain biofilms. Put plainly: In vitro biofilm eradication study (Calgary Biofilm Device). The class given is cell-based. Conditions: TSB with 12 mg/mL BSA and 50 μg/mL calcium, 37° C, OD600.
Description: This study was performed to investigate the daptomycin concentration required to fully eradicate biofilms when constantly exposed to daptomycin for one or three days. […] Biofilms were grown in tryptic soy broth (TSB) using a Methicillin-sensitive Staphylococcus aureus (MSSA) MN8 strain. Aliquots of a diluted culture of this bacterial strain in TSB, obtained from an inoculum of the respective strain on trypticase soy agar plates (TSA), were transferred to all but the negative control wells of flat-bottom 96-well microtiter plates. The bacterial biofilms were formed by immersing lids with pegs into the 96-well microtiter plates, followed by incubation for 24, 48 and 72 hours at 37° C. The differently aged biofilms were subsequently transferred into new microtiter plates using TSB media with addition of 12 mg/mL bovine serum albumin (BSA) and 50 μg/mL calcium as CaCl2. Daptomycin was added to the media as required to obtain concentrations of 2-1458 μg/mL. The plates were incubated for one or three days at 37° C. The biofilms were detached from the pegs by centrifugation, generating bacterial suspensions in the wells of the microtiter plates. The optical densities of these suspensions were measured (OD600) to determine the biofilm eradication concentrations. All measurements were performed in triplicates.

Turning to `CCCCCCCCCC(=O)N[C@@H](Cc1c[nH]c2ccccc12)C(=O)N[C@H](CC(N)=O)C(=O)N[C@@H](CC(=O)O)C(=O)N[C@@H]1C(=O)NCC(=O)N[C@@H](CCCN)C(=O)N[C@@H](CC(=O)O)C(=O)N[C@H](C)C(=O)N[C@@H](CC(=O)O)C(=O)NCC(=O)N[C@H](CO)C(=O)N[C@@H]([C@H](C)CC(=O)O)C(=O)N[C@@H](CC(=O)c2ccccc2N)C(=O)O[C@@H]1C` [daptomycin], in data set [1], the “purity of the free daptomycin in the solution control sample” value is 72%. The “daptomycin concentration needed to fully eradicate biofilms” value amounted to 486 µg/mL in data set [2] (24 hours exposure, biofilms of all ages (24, 48, 72 h)) and 162 µg/mL in data set [2] (three days exposure).
